Here are results for 3 compounds from US11447533B2, “Antimicrobial and anticancer peptides and conjugates and compositions, methods, articles and kits relating thereto” (George Mason Research Foundation, Inc., priority 2018, dated 2022).

The subject of series [1] is primary lung epithelium cells. Briefly: Cytotoxicity (Alamar blue). The series is classed as cell-based, human. Here is the method: FIGS. 11A-11B are graphs showing cytotoxicity against primary lung epithelium cells in serum-free condition. Cells were seeded in complete growth medium (Minimal essential medium supplemented with 10% fetal bovine serum) at near-confluence into a 96-well plate and allowed to settle for 24-hours. Media was then replaced to OptiMEM I reduced serum medium containing peptide or vehicle alone (DBPS) and cells were incubated overnight (16 hours). A resazurin based dye (Alamar blue) was added directly to media and conversion of resazurin to resorufin was evaluated following two hours. % Survival represents the proportion of viable cells in peptide treated cells relative to cells treated with vehicle alone. […] Each peptide was tested in triplicate.
FIG. 12 is a graph showing comparison of toxicities against Lung Primary Epithelial cells and Lung Cancerous Epithelial Cells, derived from H358 cell-line. […] Each peptide was tested in triplicate.
Cytotoxicity. Cells were seeded in complete growth medium (Minimal Essential Medium, MEMα, supplemented with 10% Fetal Bovine Serum) into a culture-treated 96-well plate at a density of 25000 cells per well. After 24 hours, culture media was aspirated and replaced with media containing the selected peptide. No-serum experiments were conducted in Opti-MEM I reduced serum media (ThermoFisher, 31985062) and 10% serum experiments were performed in complete growth medium. In all cases, DBPS was used as a vehicle only control and buffer to serially dilute the peptides. After exposure to the peptides or vehicle-alone for the defined period, Alamar blue dye (resazurin) was added directly to the media and allowed to incubate for two hours. Following incubation, A570/A600 measurements were made to calculate reduction of resazurin dye to resorufin. A ratio of reduction in treated versus untreated cells was calculated in order to determine overall cell viability. The human cells were always maintained in a 37° C. incubator under 5% CO2.
(In general: Alamar Blue is a resazurin reagent that responds to reducing activity.)

The test system of a further series is leucocytes and T-cells. The note with it: cited from earlier work.
The next series has as its system E. coli ATCC 25922. Description: Antimicrobial efficacy (resazurin virtual colony count). Type of series: cell-based, Escherichia coli. How it is done: (§1) Antimicrobial Studies. The phosphate buffers used for antimicrobial assays were supplemented with non-nitrogenous energy source, 0.1% (w/v) glucose. To conduct antimicrobial assays, bacterial strains were first suspended in respective buffers. E. coli (ATCC 25922) and B. cereus (ATCC 11778) were grown in MHB II up to OD600 nm˜1 and stored as frozen stock in 20% glycerol at −80° C. Occasionally they were thawed and enumerated by serial dilution and spreading on MHB II agar plates. The concentrations of the frozen stocks of E. coli and B. cereus strains were 1.0-1.1*10^8 CFU/mL with OD600 nm˜0.8. In case of other bacterial strains, they were grown on the days of experiment up to OD600 nm˜1-1.5 and then adjusted to OD600 nm˜0.8. The growth media of the drug-resistant bacterial strains were supplemented with few of the respective antibiotics against which they are resistant. 200 μL of the 0.8 OD600 nm culture were added to 10 mL of the respective buffer to obtain a suspension which was used to incubate with equal volumes of peptide solution in the same buffer.
(§2) Antimicrobial assays in different phosphate buffers and serum were conducted by adapting, with necessary modifications a fast high-throughput method based on Virtual Colony Count technique and later modified by incorporating the use of resazurin. At first serial dilution of a microbial strain in respective buffer was poured in the wells of 96 well polypropylene microplate and was then added with same volume of 2× MHB II supplemented with 80 μg/mL resazurin and incubated at 35° C. in a Gemini EM Microplate Reader (Molecular Devices) overnight with intermittent shaking. As the microbe grows it reduces non-fluorescent resazurin to fluorescent resorufin and the fluorescent intensity of each well were measured (excitation=570 nm, emission=590 nm) each 5 min for 15 hours. The time (t, min) to reach a certain fluorescence (RFU=20000 with respect to the starting fluorescence) was correlated with the initial bacterial concentration (in CFU/mL) in the particular well to obtain a calibration plot of the form: Log([Bacteria],CFU/mL)=b+m*t Equation 4: […]
(§3) To obtain antimicrobial efficacy of the peptides, 50 μL of serially diluted peptide in a buffer was incubated with 50 μL microbial suspension in the same buffer for 3 hours in black polypropylene 96 well plate. After incubation the wells were added with 100 μL of 2× MHB II supplemented with 80 μg/mL resazurin and then incubated with continuous fluorescence reading for overnight time period as described earlier. The surviving microbial population (CFU/mL) in each well were calculated by first finding the time to reach a fluorescence of RFU=20000 and the correlation (4) for the specific microbial strain and buffer. % Survival represents the proportion of viable cells in peptide treated cells relative to cells treated with the respective buffer alone. Equation 5: […]
Finally, the antimicrobial effectiveness of each peptide against the particular microbial strain in the specific buffer was determined by plotting % microbial survival as a function of the log of the concentration of the peptide and fitting the resulting data to a variable-slope sigmoidal regression model (equation 6). In this equation, log(EC50) represents the log of the concentration of the peptide required to kill half of the microbial population, where Smin and Smax correspond to the minimal and maximal microbial survival values (respectively), and H, Hill slope, is the parameter defining the steepness of the transition slopes of sigmoidal survival curves. % Microbial survival=Smin+(Smax−Smin)/(1+10^log(EC^50^)-log[peptide]*H) Equation 6: […]
The antimicrobial efficacies of the peptides were first tested against the model Gram-negative bacteria, E. coli ATCC 25922, in different phosphate buffers having varied ionic strengths and compositions. The phosphate buffers that were used included 10 mM sodium phosphate (calculated ionic strength˜25 mM), PBS and DPBS. […]

A further series relates to B. cereus ATCC 11778. The description is as above. The series is classed as cell-based, Bacillus cereus. Particulars: DPBS. Here is the method:
as §1, with “200 μL of the 0.8 OD600 nm culture were added to 10 mL of the respective buffer to obtain a suspension which was used to incubate with equal volumes of peptide solution in the same buffer.” left out
as §2

Series [2] deals with E. coli ML35p outer membrane. Briefly: Outer membrane disruption (β-lactamase leakage, nitrocefin). The series is classed as cell-based, Escherichia coli. The note with it: DPBS; HCMAB = 100%. How it is done:
(§4) Interactions with Bacterial Membranes. Interaction of the peptides with bacterial membranes in different phosphate buffers were evaluated using E. coli ML35p, constructed in our laboratory. At first, competent cells of E. coli ML35 were produced by conventional competent cell preparation method, then transformed with pBR322 plasmid. Transformed colonies were selected after growing on Luria-agar containing 50 μg/mL ampicillin. A single transformed colony was grown in presence of ampicillin first in Luria broth and then in MHBII and stored as 20% glycerol stock at −80° C. This frozen stock, on the day of the experiment, was thawed and grown in MHBII containing ampicillin up to OD600 nm=0.8-0.9, washed with PBS and then suspended in the respective buffer up to the required OD600 nm for use.
Membrane Disruptions. The outer and the inner membrane disruptions by the peptides were evaluated by incubating bacterial suspension with peptides and then measuring the activity of enzymes leaked out of the cells. 100 μL of 10× concentration of peptide in water was incubated with 900 μL bacterial suspension (OD600 nm˜0.1) in respective buffer for 3 hours at room temperature with gentle rotation. Then the cells and debris were separated by centrifugation (10000 r.p.m. for 30 mins) and the supernatant was collected and tested for activity of enzymes that had leaked out of the bacterial cells. HCMAB was used as a positive control to cause 100% membrane disruption and water as a negative causing 0% disruption.
The outer membrane disruption was tested by using the activity of beta-lactamase present in the periplasmic space of E. coli ML35p. Peptides when disrupt the outer membrane enough to cause beta-lactamase to come out, the degree of disruption can be measured by the virtue of the kinetics of the enzyme and using a chromogenic cephalosporin substrate called nitrocefin. β-lactamase mediated hydrolyzed product of nitrocefin has an absorbance αmax=486 nm. Supernatant collected from the incubation of peptide with bacteria was added with nitrocefin solution in DPBS and incubated at 35° C. and continuous absorbance readings. The slope of the linear section of the absorbance curve (absorbance vs time), was used as a measure of membrane disruption and the % Disruption was calculated as: Equation 7: […]
Some of the ATRA1-variants were further tested for their ability to disrupt outer and inner membranes to form pores or disruptions sufficiently large so as to allow enzymes to leak out of their cellular compartments (cytoplasm or periplasmic space). For this purpose, two reporter molecules were used with one being the substrate of a cytoplasmic enzyme and the other was a substrate for an enzyme residing in the periplasmic space. One of the reporters, nitrocefin was the substrate for β-lactamase, which is present in the bacterial periplasm, whereas the other molecule, ONPG, was the substrate for β-galactosidase, which resides in the cytoplasm of E. coli ML35p strain. […] Similarly, β-galactosidase activity in the supernatants is evidence of inner membrane disruption and possible pore formation. When the aforesaid supernatants were tested for nitrocefin and ONPG hydrolysis, the corresponding absorbance increased with time (data not shown) indicating β-lactamase and β-galactosidase activity, respectively, and thus disruption of both the inner and outer membranes. The slopes of the increase in absorbance as a function of time provides the rate of enzyme activity. The enzyme activities in supernatants collected after incubation of bacteria with the quaternary ammonium surfactant, hexadecyltrimethylammonium bromide (HCMAB) was used as an internal reference for 100% membrane disruption. Enzyme activity for supernatants collected for cells incubated in the absence of peptide provided a reference for 0% membrane disruption. Bee venom peptide melittin was used as a positive control. […]

Series [3] relates to E. coli ML35p outer membrane. Briefly: NPN assay, outer membrane perturbation. Type of series: cell-based, Escherichia coli. Particulars: PBS; 25 μM peptide; 25 μM PMB = 100%. How it is done:
as §4
NPN Assay. The outer membrane perturbation of bacteria was evaluated by incubating E. coli ML35p with peptides in presence of NPN. 100 mM NPN in acetone was supplemented proportionately to a bacterial suspension of OD600 nm˜0.5 to achieve a final concentration of 20 μM of NPN and the mixture was equilibrated for 30 mins. Then, 90 μL of the bacterial suspension containing 20 μM NPN was added with 10 μL of 250 μM peptide (10×) solution in water and scanned for fluorescence intensity (excitation=350 nm, emission=420 nm). The % Perturbation was calculated by considering PMB to be causing 100% Perturbation and water (without peptide) as 0% Perturbation. Each peptide was tested in triplicate in each of the three phosphate buffers used.
When peptides partition from the bulk aqueous environment to the cellular membranes, they may cause small defects in the membrane organization, a signature of adsorption of the peptides into the membranes. Such small defects are called membrane perturbations and can be evaluated by utilizing molecular probes. One such molecular probe is NPN, which is a hydrophobic molecule and is usually repelled to enter the hydrophobic interiors of the membrane by the polar headgroups of membrane-lipids. However, when small defects and gaps are caused during the adsorption of the peptides into the membranes, NPN can enter through those defects and in the hydrophobic environment of the membrane interior the molecule fluoresces, which can be measured for quantification of the extent of membrane-perturbation and peptide adsorption in the cellular membrane.

The subject of another series is Pseudomonas aeruginosa. Description: Antimicrobial efficacy against ESKAPE pathogens. Type of series: cell-based. Particulars: mammalian serum. How it is done: as §1, §2, §3
Finally, the antimicrobial effectiveness of each peptide against the particular microbial strain in the specific buffer was determined by plotting % microbial survival as a function of the log of the concentration of the peptide and fitting the resulting data to a variable-slope sigmoidal regression model (equation 6). […]
ATRA1-R3W2-HYD, NA-CATH and PMB were evaluated for their effectiveness in mammalian serum conditions against pathogenic bacteria of both normal and drug-resistant strains. […]

Setting [4] is: ~16 hours (overnight), reduced serum conditions.

Take `CC[C@H](C)[C@H](NC(=O)[C@H](CCCCN)NC(=O)[C@H](CCC(=O)O)NC(=O)[C@H](CCCCN)NC(=O)[C@H](CO)NC(=O)[C@H](CCCCN)NC(=O)[C@H](CCCNC(=N)N)NC(=O)[C@H](Cc1ccccc1)NC(=O)[C@H](Cc1ccccc1)NC(=O)[C@H](CC(=O)O)NC(=O)CNC(=O)[C@H](CC(C)C)NC(=O)[C@@H](N)CC(C)C)C(=O)NCC(=O)N[C@@H](CCCCN)C(=O)N[C@@H](CCC(=O)O)C(=O)N[C@@H](Cc1ccccc1)C(=O)N[C@@H](CCCCN)C(=O)N[C@@H](CCCNC(=N)N)C(=O)N[C@H](C(=O)N[C@H](C(=O)N[C@@H](CCC(N)=O)C(=O)N[C@@H](CCCNC(=N)N)C(=O)N[C@H](C(=O)N[C@@H](CCCCN)C(=O)N[C@@H](CC(=O)O)C(=O)N[C@@H](Cc1ccccc1)C(=O)N[C@@H](CC(C)C)C(=O)N[C@@H](CCCNC(=N)N)C(=O)N[C@@H](CC(N)=O)C(=O)N[C@@H](CC(C)C)C(=O)N[C@H](C(=O)N1CCC[C@H]1C(=O)N[C@@H](CCCNC(=N)N)C(=O)N[C@H](C(=O)N[C@@H](CCC(=O)O)C(=O)N[C@@H](CO)C(=O)O)[C@@H](C)O)C(C)C)[C@@H](C)CC)C(C)C)[C@@H](C)CC` [LL37]: the “concentration over which toxicity was exhibited” value in series [1] (~6 hours, 10% fetal bovine serum) was greater than 10 µM. Also, in series [1] (setting [4]), the “concentration over which significant toxicity was observed” value is “Over 10 μM” and the “cytotoxicity, in words” value is given as “higher degrees of cytotoxicity”. Besides, the “concentrations of significant cytotoxicity” value with leucocytes and T-cells was 13 to 25 µM.
As to KRFKKFFKKFK (SEQ ID NO: 11) [ATRA1-F], the “antimicrobial efficacy, in words” value is listed as “lost activity in DPBS” in the series on E. coli ATCC 25922 (DPBS (with Ca++ and Mg++), pH 7.4); “more effective than ATRA1” in the series with E. coli ATCC 25922 (PBS (high / physiologically relevant ionic strength), pH 7.4); “somewhat effective” with B. cereus ATCC 11778. Besides, the “outer membrane disruption (β-lactamase activity) relative to HCMAB” value in series [2] was “intermediate”. Besides, the “membrane perturbation with respect to PMB” value in series [3] was “decreased slightly”.
Polymyxin B [PMB, reference compound]: in the series on E. coli ATCC 25922 (DPBS + 4% (w/v) bovine serum albumin versus DPBS), the “increase of EC50 in presence of albumin relative to EC50 in DPBS” value is given as “approximately 3 fold”. The “antimicrobial efficacy, in words” value in the series on E. coli ATCC 25922 (serum) was “retained significant antimicrobial activities”. Moreover, the “antimicrobial effectiveness, in words” value in the series with Pseudomonas aeruginosa is “effective”. The “concentration over which significant toxicity was observed” value in series [1] (setting [4]) was greater than 6 µM.
